Data published in patent US9808470B2, “Estrogenic components for use in the treatment of neurological disorders” (UNIVERSITE DE LIEGE, priority 2012, dated 2017).

Legend:
[1] = system: glial fibrillary acidic protein (GFAP); test: Ex.3 neuroprotective HIE rat model: blood serum GFAP ELISA; format: in vivo; conditions: 50 mg/kg E4 ip PND4-7 before HI; PND14
Description: Blood was withdrawn, centrifuged and the serum samples were stored at −80° C.
ELISAs for detecting the brain damage markers S100B protein (Catalog# CSB-E08066r, Cusabio Biotech Co., LTD, China), and glial fibrillary acidic protein (GFAP) (Catalog# E90068Ra, Uscn Life sciences Inc., China) in blood serum samples were performed according to the manufacturers' recommendations.
Newborn rat pups were assigned to one of the following 6 groups from postnatal day 4: Sham group (n=24), Vehicle group (n=14), E4 1 mg/kg/per day group (n=11), E4 5 mg/kg/per day group (n=14), E4 10 mg/kg/per day group (n=14), or E4 50 mg/kg/per day group (n=19). From postnatal day 4, rat pups were intraperitoneally injected either vehicle (Vehicle group) or E4 (1, 5, 10, or 50 mg/kg/per day in accordance to the E4 group assignment) or neither vehicle nor E4 (Sham group). At day 7, 30 minutes after last injection, animals were anesthetized with isoflurane (induction, 3.0%; maintenance, 1.5%), and the rat pups from Vehicle and E4 groups passed through surgery encompassing left common carotid artery double ligation and cut. After the procedure, the pups were returned to their dams and were allowed to recover for 1 hour. The pups were then placed in the humidified hypoxic in vivo cabinet (CoyLab, Grass Lake, Mich., USA). […]

[2] = system: cytosolic estrogen receptors; conditions: competitive receptor binding, relative to E2; cited from earlier work

C[C@]12CC[C@@H]3c4ccc(O)cc4CC[C@H]3[C@@H]1[C@@H](O)[C@@H](O)[C@@H]2O [E4, 1,3,5(10)-estratrien-3,15α,16α,17β-tetrol]
concentration of GFAP in blood serum [1]: 300.388 ± 31.232 pg/mL | values for cytosolic estrogen receptor binding [2]: 0.015
